Test results as given in patent US20060241066A1, “Decoy composition for treating and preventing inflammatory disease” (priority 2002, published 2006).
“Also recorded” adds a separate entry of the source.

Experiments:
[1] = test system: type II collagen arthritis model in apes; test: Type II collagen arthritis model in apes, intraarticular administration; type: in vivo, apes (macaque); conditions: for effective ratio: NF-κB decoy 10 mg/joint at two-week intervals, type II collagen articulitis model in apes; for change of the joints on X-ray photographs (synovial inflammation, joint swelling, joint cartilage, osteoclasis), FIG. 1: simian collagen arthritis model, radiograph
osteoarthritis rat model = test: Osteoarthritis model using rats, intraarticular administration, joint section slides (FIG. 2); conditions: listed as NF-κB decoys

Substance	effective ratio [1]	change of the joints on X-ray photographs (synovial inflammation, joint swelling, joint cartilage, osteoclasis), FIG. 1 ([1]; listed as decoy of the present invention)	change of the joints on X-ray photographs (synovial inflammation, joint swelling, joint cartilage, osteoclasis), FIG. 1 ([1]; listed as decoys of the present invention)	effect on joint (section slide photographs), FIG. 2 (osteoarthritis rat model; administration of 10 mg of decoy)	effect on joint (section slide photographs), FIG. 2 (osteoarthritis rat model; administration of 30 mg of decoy)	effect compared with that of steroid, FIG. 2 (osteoarthritis rat model; decoy 10 mg and 30 mg versus steroid)	change of the joints on X-ray photographs (synovial inflammation, joint swelling, joint cartilage, osteoclasis), FIG. 1 [1]	change of the joints on X-ray photographs (synovial inflammation, joint swelling, joint cartilage, osteoclasis), FIG. 1 ([1]; listed as scrambled decoys)
5′-CCTTGAAGGGATTTCCCTCC-3′ (SEQ ID NO: 1) (chemistry not given here) [NF-κB decoy]	3/4	significant improvements	significant improvement	significant improvement; also recorded: significant effects	eliminated the joint inflammation; also recorded: destroyed the articulitis	exceeded that of steroids; also recorded: beyond those attained by the steroid		
5′-CATGTCGTCACTGCGCTCAT-3′ (SEQ ID NO: 7); and 5′-ATGAGCGCAGTGACGACATG-3′ (SEQ ID NO: 8) (listed as DNA, chemistry not given here) [scrambled decoy, reference compound]	1/4						no effects	No effects
